# Experimental data as given in US20150157597A1, “NEURODEGENERATIVE DISEASE TREATMENT USING JAK/STAT INHIBITION” (Uinversity of South Florida, priority 2007, published 2015).
# “Also recorded” adds a separate entry of the source.
# What was measured:
# [1] = system: primary cultured neuronal cells; experiment: LDH release assay, primary cultured neurons challenged with gp120/Tat and IFN-γ; format: cell-based, mouse; settings: for Neuronal injury, LDH release: JAK inhibitor 50 nM, IFN-γ 100 U/ml with gp120 or Tat 250 ng/ml; for Neuronal injury, LDH release / LDH release: 12 h
# Description: (§1) Primary cultures of mouse cortical neurons were prepared as described previously (Chin et al., 1997). Briefly, neuronal cells were isolated from newborn C57BL16 mice and seeded in 6-well tissue-culture plates at 2×10^5 cells/well for 48 h. […] In addition, to test whether EGCG could inhibit JAK/STAT1 signaling and neuronal damage induced by gp120 or/and Tat in the presence of IFN-γ, EGCG was also employed as the co-treatment. Cell culture supernatants were used for LDH assay while cell lysates were used for Western blot analysis of Bcl-xL and Bax proteins.
# (§2) Normal C57BL/6 primary cultured neuronal cells as well as STAT1-deficient primary neuronal cells were isolated and cultured as described previously (Chin et al., 1997). Normal cells were co-treated with either gp120 or Tat (250 ng/ml) with or without IFN-γ (100 U/ml) and/or JAK inhibitor (50 nM). STAT1-deficient cells were treated with HIV-1 gp120 or HIV-1 Tat (250 ng/ml) in the presence or absence of IFN-γ (100 U/ml) for 12 h. At the end of the treatment period, neuronal cells were washed in ice-cold PBS three times and lysed in ice-cold lysis buffer. After incubation for 30 mm on ice, samples were centrifuged at high speed for 15 mm, and supernatants were collected. Total protein content was estimated by using the Bio-Rad protein assay. For phosphorylation of JAK1, membranes were first hybridized with phosphospecific Tyr1022/1023 JAK1 antibody (Cell Signaling Technology, Beverly, Mass.) and then stripped and finally analyzed by total JAK1. For STAT1 phosphorylation, membranes were probed with a phospho-Ser727 STAT1 antibody (Cell Signaling Technology), stripped with stripping solution, and then re-probed with an antibody that recognizes total STAT1 (Cell Signaling Technology). Alternatively, membranes with identical samples were probed either with phospho-JAK or STAT1 or with an antibody that recognizes total JAK or STAT1. Immunoblotting was performed with a primary antibody, followed by an anti-rabbit HRP-conjugated IgG secondary antibody as a tracer. After being washed in TBS, the membranes were incubated in the luminol reagent and exposed to film.
# LOU release assay (Promega, Madison, Wis.) was performed as previously described (Tan et al., 2002). Briefly, after treatment at a variety of conditions, cell cultured media were collected for LOU release assay. Total LDH release was represent maximal lysis of target cells with 5% Triton X-100. Data are presented as mean±SD of LOU release.
# [2] = system: primary cultured neuronal cells; experiment: Western blot band density ratio of Bcl-xL to Bax in primary neuron lysates; format: cell-based, mouse; settings: 12 h; for Neuronal injury, Western blot band density ratio of Bcl-xL to Bax: JAK inhibitor 50 nM, IFN-γ 100 U/ml with gp120 or Tat 250 ng/ml
# Description: as §1, §2
# Western blot was performed as described previously (Tan et al., 2002). Briefly, for the in vivo studies left hemispheres of mouse brains were lysed in ice-cold lysis buffer and an aliquot corresponding to 50 μg of total protein was electrophoretically separated using 16.5% Tris-tricine gels. Electrophoresed proteins were then transferred to PVDF membranes (BioRad), washed in dH2O, and blocked for 1 h at ambient temperature in Tris-buffered saline containing 5% (w/v) nonfat dry milk. […] Densitometric analysis was done using the Fluor-S MultiImager™ with Quantity One™ software (Bio-Rad). […]
# JAK1 = JAK1 phosphorylation by Western blot in primary cultured neurons; format: cell-based, mouse
# Description: as §2, with “Alternatively, membranes with identical samples were probed either with phospho-JAK or STAT1 or with an antibody that recognizes total JAK or STAT1. Immunoblotting was performed with a primary antibody, followed by an anti-rabbit HRP-conjugated IgG secondary antibody as a tracer. After being washed in TBS, the membranes were incubated in the luminol reagent and exposed to film.” left out
# (§3) Western blot was performed as described previously (Tan et al., 2002). […] Densitometric analysis was done using the Fluor-S MultiImager™ with Quantity One™ software (Bio-Rad). […]
# STAT1 = STAT1 phosphorylation by Western blot in primary cultured neurons; format: cell-based, mouse
# Description: as §2, with “Alternatively, membranes with identical samples were probed either with phospho-JAK or STAT1 or with an antibody that recognizes total JAK or STAT1. Immunoblotting was performed with a primary antibody, followed by an anti-rabbit HRP-conjugated IgG secondary antibody as a tracer. After being washed in TBS, the membranes were incubated in the luminol reagent and exposed to film.” left out
# as §3
# C57BL/6 mice [3] = experiment: In vivo neurotoxicity, NeuN staining of cortical brain sections after i.c.v. injection; parameters: species or system mouse; settings: 24 h
# Text: (§4) Animals were anesthetized using isoflurane (chamber induction at 4-5% isoflurane, intubation and maintenance at 1-2%). After reflexes were checked to ensure that mice were unconscious, they were positioned on a stereotaxic frame (Stoelting Lab Standard) with ear-bars positioned and jaws fixed to a biting plate. The axis coordinates were taken from a mouse brain atlas, and a 5-mm sterile plastic guide cannula (21 GA; Plastic One, Inc., Roanoke, Va.) was implanted into the left lateral ventricle delimited from the stereotaxic coordinates (coordinates relative to bregma: −0.6 mm anterior/posterior, +1.2 mm medial/lateral, and −3.0 mm dorsal/ventral) using the stereotaxic device (Stoelting Lab Standard) and an attached probe (cannula) holder. IFN-γ (200 U/mouse) with HIV-1 protein gp120 (500 ng/mouse) or Tat (500 ng/mouse) or PBS (10 μl) was administered at the rate of 1 μl/min using a Hamilton syringe (modified with a solder stop to prevent over insertion of the needle) through the implanted cannula. […]
# At sacrifice, mice were anesthetized with isofluorane and transcardially perfused with ice-cold physiological saline containing heparin (10 U/ml). […] After another cycle of washing, floating sections were mounted onto slides, dehydrated and coverslipped with Vectashield fluorescence mounting media (Vector Labs., Burlingame, Calif.). […]
# C57BL/6 mice [4] = experiment: In vivo neurotoxicity, Bcl-xL/Bax Western blot of brain homogenates; parameters: species or system mouse; settings: 24 h
# Text: as §4, with “cannula. Correctness of the injection was confirmed by trypan blue dye administration and histological examination. The wounds were closed with 1-2 staples and mice were all observed until anesthesia had cleared.” for “cannula.”
# as §3
# [5] = IFN-γ 100 U/ml added to gp120 or Tat 250 ng/ml
# [6] = IFN-γ 100 U/ml, time-dependently
# [7] = EGCG 20 μM, gp120 or Tat 500 ng/ml with IFN-γ 100 U/ml
# [8] = EGCG at a range of doses co-incubated with IFN-γ 100 U/ml, 60 min
# [9] = EGCG 50 mg/kg i.p., i.c.v. IFN-γ/gp120 or IFN-γ/gp120/Tat
compound,measurement,setting,value
"CC(C)(C)c1nc2c3ccc(F)cc3c3c(=O)[nH]ccc3c2[nH]1 [JAK inhibitor, 2-(1,1-Dimethylethyl)-9-fluoro-3,6-dihydro-7H-benz[h] -imidaz[4,5-f] isoquinolin-7-one]","Cell death and apoptosis indicators (LDH, Bcl-xL/Bax) versus control treatment group","[1]; JAK1 inhibitor, combination of gp120 and Tat included in the treatment",did not return to baseline levels
same,"Neuronal injury, LDH release",[1],significantly inhibited
same,"Neuronal injury, LDH release",[1]; listed as JAK1 inhibitor,greatly reduced
same,"Neuronal injury, Western blot band density ratio of Bcl-xL to Bax",[2],significantly inhibited
same,"Neuronal injury, Western blot band density ratio of Bcl-xL to Bax",[2]; listed as JAK1 inhibitor,greatly reduced
"IFN-γ: murine recombinant IFN-γ; R&D Systems; type II interferon, soluble cytokine",LDH release,[1]; [5],significantly increased
same,Band density ratio of Bcl-xL to Bax,[2]; [5],reduced
same,Phosphorylation of JAK1,JAK1; [6],stimulates phosphorylation
same,Phosphorylation of STAT1,STAT1; [6],stimulates phosphorylation
same,Neuronal damage in cortical brain regions (NeuN),"C57BL/6 mice [3]; i.c.v. IFN-γ 200 U/mouse plus gp120 500 ng/mouse vs controls, IFN alone or gp120 alone",marked increase
same,Ratio of Bcl-xL to Bax in brain homogenates,C57BL/6 mice [4]; i.c.v. IFN-γ 200 U/mouse with gp120 or Tat 500 ng/mouse,significant reduction
(-)-epigallocatechin-3-gallate [EGCG],LDH release,[1]; [7],decreased
same,Ratio of Bcl-xL to Bax,[2]; [7],increased
same,JAK1 phosphorylation,JAK1; [8],dose-dependent inhibition
same,STAT1 phosphorylation,STAT1; [8],dose-dependent inhibition
same,Neuronal damage in cortical regions (NeuN),C57BL/6 mice [3]; [9],marked reduction; also recorded: protective
same,Ratio of Bcl-xL to Bax in brain homogenates,C57BL/6 mice [4]; [9],significant increases
